# According to patent US8476197B2, “Aminopropenoates as fungicides” (priority 2009, dated 2013):
# Marks after values point to notes of the source that are not given here.
# Details: pH 2.3
row,SMILES,Log P
1,CCOC(=O)C(C#N)=C(NC1CC1)c1cccnc1Cl [Compound 764],2.5
2,CCOC(=O)C(C#N)=C(NC(C)C)c1cccnc1Cl [Compound 823],2.54
3,COC(=O)C(C#N)=C(NC(C)C#N)c1cccnc1Cl (stereo not drawn) [Compound 869],1.85

# Same assay, conditions: pH 2.7
row,SMILES,Log P
1,CCOC(=O)C(C#N)=C(NC(C)(C)C(C)(C)C)c1sccc1Br [Compound 755],4.67^[a]
2,COC(=O)C(C#N)=C(NC(C)(C)CC(F)(F)F)c1cccnc1Cl [Compound 758],2.34^[a]
3,CCOC(=O)C(C#N)=C(NC(C)C1CC=CCC1)c1cccnc1Cl (stereo not drawn) [Compound 760],3.9^[a]
4,CCC(NC(=C(C#N)C(=O)OC)c1cccnc1Cl)C1CCCCC1 (stereo not drawn) [Compound 762],4.07^[a]
5,COC(=O)C(C#N)=C(NC1CCCC1)c1cccnc1Cl [Compound 763],2.61^[a]
6,COC(=O)C(C#N)=C(NC(C1CC1)C1CC1)c1cccnc1Cl [Compound 765],2.85^[a]
7,COC(=O)C(C#N)=C(NC(C)C1(Cl)CC1)c1cccnc1Cl (stereo not drawn) [Compound 768],2.72^[a]
8,CCOC(=O)C(C#N)=C(NC(C)C1(Cl)CC1)c1sc(C)nc1C(F)(F)F (stereo not drawn) [Compound 772],3.89^[a]
9,CCOC(=O)C(C#N)=C(NC(C)C1(Cl)CC1)c1ccsc1Br (stereo not drawn) [Compound 774],3.92^[a]
10,CCOC(=O)/C(C#N)=C(\NC(C)(C)C)c1nc(SC)ncc1Br [Compound 776],3.82^[a]
11,CCOC(=O)C(C#N)=C(NCC#N)c1cn(C)nc1C(F)F [Compound 788],1.79^[a]
12,COC(=O)C(C#N)=C(NC1CCC1)c1cccnc1Cl [Compound 793],2.34^[a]
13,CCOC(=O)C(C#N)=C(NC1CCC1)c1nc(Cl)ccc1Cl [Compound 794],3.58^[a]
14,CCOC(=O)C(C#N)=C(NC1CCC1)c1cnc(Cl)cc1Cl [Compound 796],3.55^[a]
15,CCOC(=O)C(C#N)=C(NC1CCC1)c1cc(Cl)ncc1Cl [Compound 797],3.55^[a]
16,CCOC(=O)C(C#N)=C(NC1CCC1)c1ccncc1Cl [Compound 798],2.84^[a]
17,CCOC(=O)C(C#N)=C(NC1CCC1)c1cccnc1C(F)F [Compound 799],2.76^[a]
18,CCOC(=O)C(C#N)=C(NC1CCC1)c1cnccc1C(F)(F)F [Compound 800],3.06^[a]
19,CCOC(=O)C(C#N)=C(NC1CCC1)c1ccncc1Br [Compound 803],2.9^[a]
20,CCOC(=O)C(C#N)=C(NC1CCC1)c1ccncc1F [Compound 804],2.66^[a]

row,SMILES,Log P
1,CCOC(=O)C(C#N)=C(NC1CCC1)c1ccncc1C(F)(F)F [Compound 805],3.6^[a]
2,COC(=O)C(C#N)=C(NC(C)C)c1cccnc1Cl [Compound 822],2.11^[a]
3,CCOC(=O)C(C#N)=C(NC(C)C)c1cccnc1Cl [Compound 823],2.66
4,CCOC(=O)C(C#N)=C(NC(C)CC)c1cc(C)oc1C (stereo not drawn) [Compound 825],3.63^[a]
5,CCC(C)NC(=C(C#N)C(=O)OC)c1cccnc1Cl (stereo not drawn) [Compound 826],2.55^[a]
6,CCOC(=O)C(C#N)=C(NC(C)CC)c1sccc1Br (stereo not drawn) [Compound 827],3.76^[a]
7,CCOC(=O)C(C#N)=C(NC(C)CC)c1sccc1C(F)(F)F (stereo not drawn) [Compound 829],3.83^[a]
8,CCCCCC(C)NC(=C(C#N)C(=O)OC)c1sc(C)nc1C(F)(F)F (stereo not drawn) [Compound 850],4.41^[a]
9,CCCC(C)NC(=C(C#N)C(=O)OCC)c1cn(C)nc1C(F)F (stereo not drawn) [Compound 864],3.19^[a]
10,CCCC(C)NC(=C(C#N)C(=O)OCC)c1sccc1C(F)(F)F (stereo not drawn) [Compound 865],4.21^[a]
11,CCCC(C)NC(=C(C#N)C(=O)OC)c1sc(C)nc1C(F)(F)F (stereo not drawn) [Compound 866],3.61^[a]
12,CCCC(C)NC(=C(C#N)C(=O)OCC)c1sc(C)nc1C(F)(F)F (stereo not drawn) [Compound 868],3.96^[a]
13,CCOC(=O)C(C#N)=C(NC(C)C1CCCCC1)c1cn(C)nc1C(F)F (stereo not drawn) [Compound 872],3.92^[a]
14,CCOC(=O)C(C#N)=C(NC(C)C1CC1)c1cc(C)oc1C (stereo not drawn) [Compound 879],3.63^[a]
15,COC(=O)C(C#N)=C(NC(C)C1CC1)c1cccnc1Cl (stereo not drawn) [Compound 880],2.58^[a]
16,CCOC(=O)C(C#N)=C(NC(C)C1CC1)c1cc(Cl)sc1Cl (stereo not drawn) [Compound 887],4.36^[a]
17,CCOC(=O)C(C#N)=C(NC(C)C1CC1)c1ncc(Cl)cc1Cl (stereo not drawn) [Compound 889],3.8^[a]
18,CCOC(=O)C(C#N)=C(NC(C)C1CC1)c1cccnc1C(F)(F)F (stereo not drawn) [Compound 892],3.35^[a]
19,CCOC(=O)C(C#N)=C(NC(C)C1CC1)c1cccnc1Cl (stereo not drawn) [Compound 909],3.1^[a]

# Further lines, results first:
row,Log P,SMILES
1,3.46^[a],CCOC(=O)C(C#N)=C(NC(C)(C)C(C)(C)C)c1cn(C)nc1C(F)F [Compound 753]
2,4.02^[a],COC(=O)C(C#N)=C(NC(C)(C)C(C)(C)C)c1sc(C)nc1C(F)(F)F [Compound 754]
3,2.76^[a],CCC(CC)NC(=C(C#N)C(=O)OC)c1cccnc1Cl [Compound 756]
4,2.34^[a],COC(=O)C(C#N)=C(NC(C)CC(F)(F)F)c1cccnc1Cl (stereo not drawn) [Compound 757]
5,1.87^[a],COC(=O)C(C#N)=C(NC1CC1F)c1cccnc1Cl (stereo not drawn) [Compound 759]
6,3.55^[a],CCOC(=O)C(C#N)=C(NC1CCCCC1)c1cccnc1Cl [Compound 761]
7,2.84^[a],COC(=O)C(C#N)=C(NC(C)CC1CC1)c1cccnc1Cl (stereo not drawn) [Compound 766]
8,4.04^[a],CCOC(=O)C(C#N)=C(NC(C)C1(Cl)CC1)c1sccc1C(F)(F)F (stereo not drawn) [Compound 769]
9,3.53^[a],COC(=O)C(C#N)=C(NC(C)C1(Cl)CC1)c1sc(C)nc1C(F)(F)F (stereo not drawn) [Compound 770]
10,3.94^[a],CCOC(=O)C(C#N)=C(NC(C)C1(Cl)CC1)c1sccc1Br (stereo not drawn) [Compound 771]
11,2.31^[a],COC(=O)C(C#N)=C(NC(C)(C)C)c1cccnc1Cl [Compound 775]
12,2.01^[a],COC(=O)C(C#N)=C(NCC#N)c1sc(C)nc1C(F)(F)F [Compound 787]
13,2.33^[a],CCOC(=O)C(C#N)=C(NCC#N)c1sccc1Br [Compound 789]
14,2.35^[a],CCOC(=O)C(C#N)=C(NCC#N)c1sc(C)nc1C(F)(F)F [Compound 790]
15,2.32^[a],CCOC(=O)C(C#N)=C(NCC#N)c1ccsc1Br [Compound 791]
16,3.67^[a],CCOC(=O)C(C#N)=C(NC1CCC1)c1ncc(Cl)cc1Cl [Compound 795]
17,3.79^[a],CCOC(=O)C(C#N)=C(NC1CCC1)c1cc(Cl)cc(Cl)n1 [Compound 801]
18,3.52^[a],CCOC(=O)C(C#N)=C(NC1CCC1)c1ccnc(Cl)c1Cl [Compound 802]
19,3.23^[a],CCC(C)NC(=C(C#N)C(=O)OC)c1sc(C)nc1C(F)(F)F (stereo not drawn) [Compound 831]
20,2.82^[a],CCOC(=O)C(C#N)=C(NC(C)CC)c1cn(C)nc1C(F)F (stereo not drawn) [Compound 833]
21,3.59^[a],CCOC(=O)C(C#N)=C(NC(C)CC)c1sc(C)nc1C(F)(F)F (stereo not drawn) [Compound 835]

row,Log P,SMILES
1,5.03^[a],CCCCCC(C)NC(=C(C#N)C(=O)OCC)c1sccc1Br (stereo not drawn) [Compound 844]
2,5.05^[a],CCCCCC(C)NC(=C(C#N)C(=O)OCC)c1sccc1C(F)(F)F (stereo not drawn) [Compound 847]
3,3.94^[a],CCCCCC(C)NC(=C(C#N)C(=O)OCC)c1cn(C)nc1C(F)F (stereo not drawn) [Compound 853]
4,4.81^[a],CCCCCC(C)NC(=C(C#N)C(=O)OCC)c1sc(C)nc1C(F)(F)F (stereo not drawn) [Compound 856]
5,4.94^[a],CCCCC[C@H](C)N/C(=C(/C#N)C(=O)OCC)c1ccsc1Br [Compound 861]
6,4.99^[a],CCCCCC(C)N/C(=C(/C#N)C(=O)OCC)c1ccsc1Br (stereo not drawn) [Compound 862]
7,4.16^[a],CCCC(C)NC(=C(C#N)C(=O)OCC)c1sccc1Br (stereo not drawn) [Compound 867]
8,5.11^[a],CCOC(=O)C(C#N)=C(NC(C)C1CCCCC1)c1sccc1C(F)(F)F (stereo not drawn) [Compound 873]
9,4.46^[a],COC(=O)C(C#N)=C(NC(C)C1CCCCC1)c1sc(C)nc1C(F)(F)F (stereo not drawn) [Compound 874]
10,5.11^[a],CCOC(=O)C(C#N)=C(NC(C)C1CCCCC1)c1sccc1Br (stereo not drawn) [Compound 875]
11,4.86^[a],CCOC(=O)C(C#N)=C(NC(C)C1CCCCC1)c1sc(C)nc1C(F)(F)F (stereo not drawn) [Compound 876]
12,5.03^[a],CCOC(=O)C(C#N)=C(NC(C)C1CCCCC1)c1ccsc1Br (stereo not drawn) [Compound 877]
13,2.88^[a],CCOC(=O)C(C#N)=C(NC(C)C1CC1)c1cn(C)nc1C(F)F (stereo not drawn) [Compound 882]
14,3.83^[a],CCOC(=O)C(C#N)=C(NC(C)C1CC1)c1sccc1C(F)(F)F (stereo not drawn) [Compound 883]
15,3.27^[a],COC(=O)C(C#N)=C(NC(C)C1CC1)c1sc(C)nc1C(F)(F)F (stereo not drawn) [Compound 884]
16,3.76^[a],CCOC(=O)C(C#N)=C(NC(C)C1CC1)c1sccc1Br (stereo not drawn) [Compound 885]
17,3.61^[a],CCOC(=O)C(C#N)=C(NC(C)C1CC1)c1sc(C)nc1C(F)(F)F (stereo not drawn) [Compound 886]
18,3.73^[a],CCOC(=O)C(C#N)=C(NC(C)C1CC1)c1nc(Cl)ccc1Cl (stereo not drawn) [Compound 888]
19,3.64^[a],CCOC(=O)C(C#N)=C(NC(C)C1CC1)c1cnc(Cl)cc1Cl (stereo not drawn) [Compound 890]
20,2.8^[a],CCOC(=O)C(C#N)=C(NC(C)C1CC1)c1cn(C)nc1OC (stereo not drawn) [Compound 891]
21,3.87^[a],CCOC(=O)C(C#N)=C(NC(C)C1CC1)c1sc(Cl)nc1Cl (stereo not drawn) [Compound 893]

# Same assay, conditions: pH 7.5
row,SMILES,Log P
1,CCOC(=O)C(C#N)=C(NC1CC1)c1cccnc1Cl [Compound 764],2.36
2,CCOC(=O)C(C#N)=C(NC(C)CBr)c1cccnc1Cl (stereo not drawn) [Compound 767],2.79
3,CCOC(=O)C(C#N)=C(NC(C)CC#N)c1cccnc1Cl (stereo not drawn) [Compound 792],2.13
4,CCOC(=O)C(C#N)=C(NC(C)C)c1cccnc1Cl [Compound 823],2.53
5,COC(=O)C(C#N)=C(NC(C)C#N)c1cccnc1Cl (stereo not drawn) [Compound 869],1.86
6,COC(=O)C(C#N)=C(N[C@@H](C)C1CCCCC1)c1cccnc1Cl [Compound 870],3.76
7,COC(=O)C(C#N)=C(N[C@H](C)C1CCCCC1)c1cccnc1Cl [Compound 871],3.76
8,CCOC(=O)C(C#N)=C(NC(C)C1CC1)c1cccnc1Cl (stereo not drawn) [Compound 878],2.93
9,CCOC(=O)C(C#N)=C(NC(C)C1CC1)c1ccc(C)nc1Cl (stereo not drawn) [Compound 881],3.32
